From patent publication US9023847B2, “Azaheterocyclic compounds” (Merck Patent GmbH, priority 2009, dated 2015)

These compounds were tested against T1, P70S6K (T412E mutant, Millipore) (Homo sapiens, UniProt P23443, T412E) (assay: p70S6K enzyme assay). Conditions: Table 1; 3 nM P70S6K, 24 μM ATP, 90 min at 25° C.; read-out: p70S6K inhibition (IC50).
T1 construct: purchased Millipore
Type: biochemical
How it was run: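 T412E-mutant P70S6K (3 nM) with 24 μM ATP and 1 μM FITC-AHA-AKRRRLSSLRA-OH S6-derived peptide in 100 mM Hepes pH 7.5, 5 mM MgCl2, 1 mM DTT, 0.015% Brij; 90 min at 25° C, EDTA stop. Phosphorylated product and substrate peptide separated and quantified by microfluidic capillary electrophoresis (Caliper LabChip 3000).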

T1 sequence (P23443 whole entry T412E): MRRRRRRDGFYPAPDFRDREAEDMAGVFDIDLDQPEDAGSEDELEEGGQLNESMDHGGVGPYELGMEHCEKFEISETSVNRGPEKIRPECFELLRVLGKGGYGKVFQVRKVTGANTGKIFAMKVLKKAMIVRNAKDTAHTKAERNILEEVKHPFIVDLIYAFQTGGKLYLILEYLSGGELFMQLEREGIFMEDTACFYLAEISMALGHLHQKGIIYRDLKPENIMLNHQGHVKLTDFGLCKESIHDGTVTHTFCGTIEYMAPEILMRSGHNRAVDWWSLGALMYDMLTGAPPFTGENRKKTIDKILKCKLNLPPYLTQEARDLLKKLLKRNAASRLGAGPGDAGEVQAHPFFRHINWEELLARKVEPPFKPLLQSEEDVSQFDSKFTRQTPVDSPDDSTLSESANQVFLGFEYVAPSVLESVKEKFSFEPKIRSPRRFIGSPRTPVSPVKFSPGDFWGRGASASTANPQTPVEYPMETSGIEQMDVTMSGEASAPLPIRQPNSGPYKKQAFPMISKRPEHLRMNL

SMILES | IC50 [nM]
O=C(NCc1cccc(Cl)c1)c1occc1Nc1ncnc2[nH]ccc12 [Example 141, 3-(7H-Pyrrolo[2,3-d]pyrimidin-4-ylamino)-furan-2-carboxylic acid 3-chloro-benzylamide] | < 100
O=C(NCCc1ccc(F)cc1)c1sccc1Nc1ncnc2[nH]ccc12 [Example 145, 3-(7H-Pyrrolo[2,3-d]pyrimidin-4-ylamino)-thiophene-2-carboxylic acid [2-(4-fluoro-phenyl)-ethyl]-amide] | < 100
O=C(NCCc1ccc(Br)cc1)c1sccc1Nc1ncnc2[nH]ccc12 [Example 146, 3-(7H-Pyrrolo[2,3-d]pyrimidin-4-ylamino)-thiophene-2-carboxylic acid [2-(4-bromo-phenyl)-ethyl]-amide] | < 100
Cc1ccccc1CCNC(=O)c1sccc1Nc1ncnc2[nH]ccc12 [Example 147, 3-(7H-Pyrrolo[2,3-d]pyrimidin-4-ylamino)-thiophene-2-carboxylic acid [2-o-tolyl-ethyl)-amide] | < 100
O=C(NCCNCc1ccccc1)c1sccc1Nc1ncnc2[nH]ccc12 [Example 148, 3-(7H-Pyrrolo[2,3-d]pyrimidin-4-ylamino)-thiophene-2-carboxylic acid [2-2-benzylamino-ethyl)-amide] | < 100
O=C(NCCc1ccc(F)cc1)c1sccc1Nc1ccnc2[nH]ccc12 [Example 150, 3-(1H-Pyrrolo[2,3-b]pyridin-4-ylamino)-thiophene-2-carboxylic acid [2-(4-fluoro-phenyl)-ethyl]-amide] | < 100
CC(C)NC(=O)c1ccccc1Nc1ccnc2[nH]ccc12 [Example 155, N-Isopropyl-2-(1H-pyrrolo[2,3-b]pyridin-4-ylamino)-benzamide] | 100 to 1000

Second part, the compound after the results:

IC50 [nM] | SMILES
< 100 | O=C(NCCc1cccc(F)c1)c1sccc1Nc1ncnc2[nH]ccc12 [Example 142, 3-(7H-Pyrrolo[2,3-d]pyrimidin-4-ylamino)-thiophene-2-carboxylic acid [2-(3-fluoro-phenyl)-ethyl]-amide]
< 100 | O=C(NCCc1ccccc1)c1sccc1Nc1ncnc2[nH]ccc12 [Example 143, 3-(7H-Pyrrolo[2,3-d]pyrimidin-4-ylamino)-thiophene-2-carboxylic acid phenethyl-amide]
< 100 | O=C(NCCc1cccc(Cl)c1)c1sccc1Nc1ncnc2[nH]ccc12 [Example 144, 3-(7H-Pyrrolo[2,3-d]pyrimidin-4-ylamino)-thiophene-2-carboxylic acid [2-(3-chloro-phenyl)-ethyl]-amide]
< 100 | O=C(NC1CCCNC1)c1sccc1Nc1ncnc2[nH]ccc12 (centres unmarked) [Example 151, 3-(7H-Pyrrolo[2,3-d]pyrimidin-4-ylamino)-thiophene-2-carboxylic acid piperidin-3-ylamide]
< 100 | Cc1cc(Nc2ncnc3[nH]ccc23)c(C(=O)NCc2cccc(Cl)c2)s1 [Example 152, 5-Methyl-3-(7H-pyrrolo[2,3-d]pyrimidin-4-ylamino)-thiophene-2-carboxylic acid 3-chloro-benzylamide]
100 to 1000 | CNCCNC(=O)c1sccc1Nc1ncnc2[nH]ccc12 [Example 153, 3-(7H-Pyrrolo[2,3-d]pyrimidin-4-ylamino)-thiophene-2-carboxylic acid (2-methylamino-ethyl)-amide]
100 to 1000 | CC(C)(C)OC(=O)N1CCCC(NC(=O)c2sccc2Nc2ncnc3[nH]ccc23)C1 (centres unmarked) [Example 154, 3-{[3-(7H-Pyrrolo[2,3-d]pyrimidin-4-ylamino)-thiophene-2-carbonyl]-amino}-piperidine-1-carboxylic acid tert-butyl ester]
1000 to 10000 | CC(C)(C)OC(=O)N1CCC(NC(=O)c2sccc2Nc2ccnc3[nH]ccc23)C1 (centres unmarked) [Example 156, 3-{[3-(1H-Pyrrolo[2,3-b]pyridin-4-ylamino)-thiophene-2-carbonyl]-amino}-pyrrolidine-1-carboxylic acid tert-butyl ester]
1000 to 10000 | CC(C)(C)OC(=O)N(CCNC(=O)c1occc1Nc1ncnc2[nH]ccc12)Cc1ccccc1 [Example 157, Benzyl-(2-{[3-(7H-pyrrolo[2,3-d]pyrimidin-4-ylamino)-furan-2-carbonyl]-amino}-ethyl)-carbamic acid tert-butyl ester]

Same assay, conditions: class symbol; 3 nM P70S6K, 24 μM ATP; read-out: IC50 (p70S6K)

SMILES | IC50 [nM]
COc1cccc(C(CN(C)C)NC(=O)c2sccc2Nc2ccnc3[nH]ccc23)c1 (centres unmarked) [Example 160, 3-(1H-Pyrrolo[2,3-b]pyridin-4-ylamino)-thiophene-2-carboxylic acid [2-dimethylamino-1-(3-methoxy-phenyl)-ethyl]-amide] | < 100
O=C(Nc1cccc(CNC(=O)c2sccc2Nc2ccnc3[nH]ccc23)c1)c1ccnc(N2CCCC2)c1 [Example 161, 2-Pyrrolidin-1-yl-N-[3-({[3-(1H-pyrrolo[2,3-b]pyridin-4-ylamino)-thiophene-2-carbonyl]-amino}-methyl)-phenyl]-isonicotinamide] | < 100
CN(C)c1cc(C(=O)Nc2cccc(CNC(=O)c3sccc3Nc3ccnc4[nH]ccc34)c2)ccn1 [Example 162, 2-Dimethylamino-N-[3-({[3-(1H-pyrrolo[2,3-b]pyridin-4-ylamino)-thiophene-2-carbonyl]-amino}-methyl)-phenyl]-isonicotinamide] | < 100
CCNc1cc(C(=O)Nc2cccc(CNC(=O)c3sccc3Nc3ccnc4[nH]ccc34)c2)ccn1 [Example 165, 2-Ethylamino-N-[3-({[3-(1H-pyrrolo[2,3-b]pyridin-4-ylamino)-thiophene-2-carbonyl]-amino}-methyl)-phenyl]-isonicotinamide] | < 100
CN(C)CC(NC(=O)c1sccc1Nc1ccnc2[nH]ccc12)c1ccc(F)cc1 (centres unmarked) [Example 166, 3-(1H-Pyrrolo[2,3-b]pyridin-4-ylamino)-thiophene-2-carboxylic acid [2-dimethylamino-1-(4-fluoro-phenyl)-ethyl]-amide] | < 100
CNCC(NC(=O)c1sccc1Nc1ccnc2[nH]ccc12)c1cccc(Cl)c1 (centres unmarked) [Example 168, 3-(1H-Pyrrolo[2,3-b]pyridin-4-ylamino)-thiophene-2-carboxylic acid [1-(3-chloro-phenyl)-2-methylamino-ethyl]-amide] | < 100
CNCC(NC(=O)c1sccc1Nc1ccnc2[nH]ccc12)c1ccccc1 (centres unmarked) [Example 169, 3-(1H-Pyrrolo[2,3-b]pyridin-4-ylamino)-thiophene-2-carboxylic acid (2-methylamino-1-phenyl-ethyl)-amide] | < 100
O=C(NCc1ccccc1)c1sccc1Nc1ncnc2[nH]ccc12 [Example 172, 3-(7H-Pyrrolo[2,3-d]pyrimidin-4-ylamino)-thiophene-2-carboxylic acid benzylamide] | < 100
O=C(NCc1cccc(Cl)c1)c1sccc1Nc1ncnc2[nH]ccc12 [Example 173, 3-(7H-Pyrrolo[2,3-d]pyrimidin-4-ylamino)-thiophene-2-carboxylic acid 3-chloro-benzylamide] | < 100
O=C(NCCc1ccccc1)c1sccc1Nc1ncnc2[nH]ccc12 [Example 174, 3-(7H-Pyrrolo[2,3-d]pyrimidin-4-ylamino)-thiophene-2-carboxylic acid phenethylamide] | < 100

Second part, the compound after the results:

IC50 [nM] | SMILES
< 100 | N#CC[C@@H](NC(=O)c1ccsc1Nc1ccnc2[nH]ccc12)c1ccccc1 [Example 139, 2-(1H-Pyrrolo[2,3-b]pyridin-4-ylamino)-thiophene-3-carboxylic acid ((R)-2-cyano-1-phenyl-ethyl)-amide]
< 100 | NC[C@@H](NC(=O)c1ccsc1Nc1ccnc2[nH]ccc12)c1ccccc1 [Example 140, 2-(1H-Pyrrolo[2,3-b]pyridin-4-ylamino)-thiophene-3-carboxylic acid ((S)-2-amino-1-phenyl-ethyl)-amide]
100 to 1000 | COc1ccccc1C(CN(C)C)NC(=O)c1sccc1Nc1ccnc2[nH]ccc12 (centres unmarked) [Example 158, 3-(1H-Pyrrolo[2,3-b]pyridin-4-ylamino)-thiophene-2-carboxylic acid [2-dimethylamino-1-(2-methoxy-phenyl)-ethyl]-amide]
< 100 | CN(C)CC(NC(=O)c1sccc1Nc1ccnc2[nH]ccc12)c1cccc(Cl)c1 (centres unmarked) [Example 159, 3-(1H-Pyrrolo[2,3-b]pyridin-4-ylamino)-thiophene-2-carboxylic acid [1-(3-chloro-phenyl)-2-dimethylamino-ethyl]-amide]
< 100 | CN1CCN(c2cc(C(=O)Nc3cccc(CNC(=O)c4sccc4Nc4ccnc5[nH]ccc45)c3)ccn2)CC1 [Example 163, 2-(4-Methyl-piperazin-1-yl)-N-[3-({[3-(1H-pyrrolo[2,3-b]pyridin-4-ylamino)-thiophene-2-carbonyl]-amino}-methyl)-phenyl]-isonicotinamide]
< 100 | O=C(Nc1cccc(CNC(=O)c2sccc2Nc2ccnc3[nH]ccc23)c1)c1ccnc(N2CCOCC2)c1 [Example 164, 2-Morpholin-4-yl-N-[3-({[3-(1H-pyrrolo[2,3-b]pyridin-4-ylamino)-thiophene-2-carbonyl]-amino}-methyl)-phenyl]-isonicotinamide]
< 100 | CNCC(NC(=O)c1sccc1Nc1ccnc2[nH]ccc12)c1cccc(F)c1 (centres unmarked) [Example 167, 3-(1H-Pyrrolo[2,3-b]pyridin-4-ylamino)-thiophene-2-carboxylic acid [1-(3-fluoro-phenyl)-2-methylamino-ethyl]-amide]
< 100 | NC[C@@H](NC(=O)c1sccc1Nc1ccnc2[nH]ccc12)c1ccccc1 [Example 170, 3-(1H-Pyrrolo[2,3-b]pyridin-4-ylamino)-thiophene-2-carboxylic acid ((S)-2-amino-1-phenyl-ethyl)-amide]
< 100 | NC[C@@H](NC(=O)c1sccc1Nc1ccnc2[nH]ccc12)c1cccc(F)c1 [Example 171, 3-(1H-Pyrrolo[2,3-b]pyridin-4-ylamino)-thiophene-2-carboxylic acid [(S)-2-amino-1-(3-fluoro-phenyl)-ethyl]-amide]
